Measurements reported in patent US5204329A, “Treatment of organ transplantation rejection” (Du Pont Merck Pharmaceutical Company, priority 1990, dated 1993).
Values joined by “and” are separate entries in the source; they are usually repeats but may differ in a detail not shown here. Identical values can stand only once.

How the values were obtained:
[1] = known immunosuppressive agents; listed as AZA; cited from earlier work
[2] = tested on: contact sensitivity response to 2,4-dinitrofluorobenzene (DNFB); test: Contact Sensitivity Response to DNFB in Mice (ear swelling); assay type: in vivo, Balb/c female mice
Protocol: Balb/c female mice ([…].20 g, Charles River) were sensitized on the shaved abdomen with 25 μl of 0.5% 2,4-dinitrofluorobenzene (DNFB, Eastman Kodak Co.) in a vehicle of 4:1 acetone:olive oil on days 0 and 1. Mice were ear challenged with 20 μl of 0.2% DNFB in a vehicle of 4:1 acetone:olive oil on day 5. An identical segment of the ear was measured immediately before challenge and 24 hours later with an engineer's micrometer. Ear swelling was expressed as the difference in ear thickness before and after challenge in units of 10^-4 inches±SEM. Percent suppression was calculated as: [formula] […] Control animals received only vehicle (0.25% Methocel®). Negative controls were not sensitized on days 0 and 1 but were ear challenged on day 5. Ten mice were used per group.
Contact sensitivity to DNFB is a form of delayed-type hypersensitivity which has been extensively studied to gain an understanding of the regulation of immunologic processes (Claman et. al. (1980), Immunological Rev. 50:105-132). This reaction is mediated by T lymphocytes that become sensitized to antigen by proliferating and developing into mature effector cells (Claman et. al. (1980), Immunological Rev. 105-132). This cell-mediated immune response (T-cell mediated immunity) is central to many disease states such as organ transplantation rejection and graft versus host disease (Benacerraf and Unanue (1979), Textbook of Immunology, Williams & Wilkins Co.,; Eisen (1980), Immunology, An Introduction to Molecular and Cellular Principles of the Immune Responses, Harper & Row, Inc.; Loveland and McKenzie (1982), Inflammation, Basic Principles and Clinical Correlates, Raven Press). […]

[3] = tested on: dihydroorotate dehydrogenase; conditions: consequent inhibition of pyrimidine nucleotide biosynthesis; Chen et al. (1986); cited from earlier work
[4] = Table 1, 0.4 mg/kg oral, days 0-6
[5] = Table 1, 2.0 mg/kg oral, days 0-6
[6] = Table 1, 10.0 mg/kg oral, days 0-6
[7] = Table 1, 20.0 mg/kg oral, days 0-6
[8] = Table 4, dosing only day 0 and 1, 20.0 mg/kg

Cn1cnc([N+](=O)[O-])c1Sc1ncnc2nc[nH]c12 [Azathioprine, reference compound]
clinically observed toxicities / side effects [1]: nephrotoxicity and hepatoxicity
Azathioprine ED50 ([2]; Table 3, Ex. 28 at 0 mg/kg): 38.0 mg/kg
Azathioprine ED50 ([2]; Table 3, with Ex. 28 at 0.1 mg/kg): 42.0 mg/kg
Azathioprine ED50 ([2]; Table 3, with Ex. 28 at 0.3 mg/kg): 43.0 mg/kg
Azathioprine ED50 ([2]; Table 3, with Ex. 28 at 1.0 mg/kg): 7.5 mg/kg
Azathioprine ED50 ([2]; Table 3, with Ex. 28 at 3.0 mg/kg): < 6.3 mg/kg
Azathioprine ED50 ([2]; Table 3, with Ex. 28 at 10.0 mg/kg): < 6.3 mg/kg
% Suppression of Ear Swelling ([2]; agent alone, 6.3 mg/kg, days 0-6): 2.5 ± 4.2%
% Suppression of Ear Swelling ([2]; agent alone, 12.5 mg/kg, days 0-6): 15.9 ± 3.3%
% Suppression of Ear Swelling ([2]; agent alone, 12.5 mg/kg, days 0-6, listed as azathioprine): 15.9%
% Suppression of Ear Swelling ([2]; agent alone, 25.0 mg/kg, days 0-6): 29.7 ± 4.1%
% Suppression of Ear Swelling ([2]; agent alone, 50.0 mg/kg, days 0-6): 72.1 ± 3.1%
% Suppression of Ear Swelling ([2]; agent alone, 100.0 mg/kg, days 0-6): 97.7 ± 1.6%

Cc1c(-c2ccc(-c3ccccc3F)cc2)nc2ccc(F)cc2c1C(=O)O [Example 28, 2-(2'-fluoro-1,1'-biphenyl-4-yl)-6-fluoro-3-methyl-4-quinoline carboxylic acid]
unique mechanism of action: inhibition of dihydroorotate dehydrogenase [3]: inhibition of dihydroorotate dehydrogenase
ED50 ([2]; Mus musculus, Table 1, agent alone, oral, days 0-6): 0.95 mg/kg
% Suppression [2, 4]: 30.20%
Ear Swelling (units ± SEM), increase in ear thickness from day 5 to day 6 [2, 4]: 51.95 ± 2.33 10^-4 inches
% Suppression [2, 5]: 66.10%
Ear Swelling (units ± SEM), increase in ear thickness from day 5 to day 6 [2, 5]: 25.61 ± 3.39 10^-4 inches
% Suppression [2, 6]: 92.28%
Ear Swelling (units ± SEM), increase in ear thickness from day 5 to day 6 [2, 6]: 6.40 ± 1.09 10^-4 inches
% Suppression [2, 7]: 94.53%
Ear Swelling (units ± SEM), increase in ear thickness from day 5 to day 6 [2, 7]: 4.75 ± 1.20 10^-4 inches
Ex. 28 ED50 ([2]; Table 2, with cyclosporin A 6.3 mg/kg): 1.0 mg/kg
Ex. 28 ED50 ([2]; Table 2, with cyclosporin A 12.5 mg/kg): 0.8 mg/kg
Ex. 28 ED50 ([2]; Table 2, with cyclosporin A 25.0 mg/kg): 0.7 mg/kg
Ex. 28 ED50 ([2]; Table 2, with cyclosporin A 30.0 mg/kg): 0.4 mg/kg
Ex. 28 ED50 ([2]; Table 2, with cyclosporin A 50.0 mg/kg): 0.4 mg/kg
Ex. 28 ED50 ([2]; Table 2, with cyclosporin A 70.0 mg/kg): < 0.3 mg/kg
Ex. 28 ED50 ([2]; Table 3, with azathioprine 6.3 mg/kg): 1.3 mg/kg
Ex. 28 ED50 ([2]; Table 3, with azathioprine 12.5 mg/kg): 0.8 mg/kg
Ex. 28 ED50 ([2]; Table 3, with azathioprine 25.0 mg/kg): 0.7 mg/kg
Ex. 28 ED50 ([2]; Table 3, with azathioprine 50.0 mg/kg): < 0.1 mg/kg
Ex. 28 ED50 ([2]; Table 3, with azathioprine 100.0 mg/kg): < 0.1 mg/kg
% Suppression [2, 8]: 14.4%
ΔEar Swelling [2, 8]: 59.6 ± 2.5
Ex. 28 ED50 ([2]; Tables 2 and 3, cyclosporin A / azathioprine at 0 mg/kg): 1.4 mg/kg
% Suppression of Ear Swelling ([2]; agent alone, 0.1 mg/kg, days 0-6, listed as Ex. 28, 0.1 mg/kg): 6.5 ± 2.9% and 6.5 ± 2.8%
% Suppression of Ear Swelling ([2]; agent alone, 0.3 mg/kg, days 0-6): 7.3 ± 2.4%
% Suppression of Ear Swelling ([2]; agent alone, 1.0 mg/kg, days 0-6): 31.4%
% Suppression of Ear Swelling ([2]; agent alone, 1.0 mg/kg, days 0-6, listed as Ex. 28, 1 mg/kg): 31.4 ± 3.3%
% Suppression of Ear Swelling ([2]; agent alone, 3.0 mg/kg, days 0-6): 91.9 ± 2.3%
% Suppression of Ear Swelling ([2]; agent alone, 10.0 mg/kg, days 0-6): 93.9 ± 2.4%
